Consider 20 compounds from patent US20260374756A1, “HETEROCYCLIC COMPOUNDS AS INHIBITORS OF MONOACYLGLYCEROL LIPASE (MAGL)” (Hoffmann-La Roche Inc., priority 2022, published 2026).

This assay concerns the target T1, hMAGL (Homo sapiens, UniProt Q99685).
T1 sequence (Q99685 1-303): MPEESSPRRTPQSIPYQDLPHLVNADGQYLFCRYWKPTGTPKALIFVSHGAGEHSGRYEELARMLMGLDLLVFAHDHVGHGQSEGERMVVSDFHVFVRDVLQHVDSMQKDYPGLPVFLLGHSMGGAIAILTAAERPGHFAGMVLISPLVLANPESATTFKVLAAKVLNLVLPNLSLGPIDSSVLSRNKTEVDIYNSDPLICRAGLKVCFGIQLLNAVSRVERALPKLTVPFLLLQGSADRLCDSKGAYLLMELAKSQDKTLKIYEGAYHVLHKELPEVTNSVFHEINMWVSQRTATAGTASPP
Kind of assay: 2-AG assay: MAGL inhibition, hydrolysis of 2-arachidonoylglycerol to arachidonic acid followed by mass spectrometry. The assay is classed as biochemical. The procedure, abridged: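 Read-out is LC-MS/MS of arachidonic acid released from 2-arachidonoylglycerol (8 μM final), normalised to d8-arachidonic acid internal standard after acetonitrile quench. Enzyme […] and compound were pre-mixed 15 min, then reacted 30 min, both at RT, in Tris/EDTA buffer with 0.01% Tween-20 and 2.5% DMSO.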

The IC50 is the concentration that inhibits the measured activity by half. `Cc1sc(CN2CC3(C2)CN(C(=O)N2CC4(CC(n5cnc(C(F)(F)F)n5)C4)C2)C3)nc1C(F)(F)F` [Example 54, [6-[[5-methyl-4-(trifluoromethyl)thiazol-2-yl]methyl]-2,6-diazaspiro[3.3]heptan-2-yl]-[6-[3-(trifluoromethyl)-1,2,4-triazol-1-yl]-2-azaspiro[3.3]heptan-2-yl]methanone]: half-maximal inhibition (IC50) was put at 85.7 nM.
The value for `CCn1nc(C(F)(F)F)cc1CN1CC2(C1)CN(C(=O)N1CC3(CC(n4cnc(C5(O)CC5)n4)C3)C1)C2` [Example 168, [6-[[2-ethyl-5-(trifluoromethyl)pyrazol-3-yl]methyl]-2,6-diazaspiro[3.3]heptan-2-yl]-[6-[3-(1-hydroxycyclopropyl)-1,2,4-triazol-1-yl]-2-azaspiro[3.3]heptan-2-yl]methanone] was 45.6 nM; that for `O=C(N1CC2(CC(n3cnc(C(F)(F)F)n3)C2)C1)N1CC2(CN(Cc3ccn(C(F)(F)F)n3)C2)C1` [Example 116, [6-[[1-(trifluoromethyl)pyrazol-3-yl]methyl]-2,6-diazaspiro[3.3]heptan-2-yl]-[6-[3-(trifluoromethyl)-1,2,4-triazol-1-yl]-2-azaspiro[3.3]heptan-2-yl]methanone] was 161 nM.
The value for `O=C(N1CC2(CC(Cc3cc(C(F)(F)F)n[nH]3)C2)C1)N1CC2(CC(n3cnc(C(F)F)n3)C2)C1` [Example 343, [6-[3-(difluoromethyl)-1,2,4-triazol-1-yl]-2-azaspiro[3.3]heptan-2-yl]-[6-[[3-(trifluoromethyl)-1H-pyrazol-5-yl]methyl]-2-azaspiro[3.3]heptan-2-yl]methanone] was 2.62 nM; that for `Cn1nc(CC2CC3(C2)CN(C(=O)N2CC4(CC(n5cnc(C6(O)CC6)n5)C4)C2)C3)cc1C(F)(F)F` [Example 2, [6-[3-(1-hydroxycyclopropyl)-1,2,4-triazol-1-yl]-2-azaspiro[3.3]heptan-2-yl]-[6-[[1-methyl-5-(trifluoromethyl)pyrazol-3-yl]methyl]-2-azaspiro[3.3]heptan-2-yl]methanone] was 0.61 nM; that for `O=C(N1CC2(CC(n3cnc(C(F)(F)F)n3)C2)C1)N1CC2(CN(Cc3nc(CC(F)(F)F)no3)C2)C1` [Example 206] was 149 nM.
As for `O=C(N1CC2(CC(Cc3cc(C4(C(F)(F)F)CC4)[nH]n3)C2)C1)N1CC2(CC(n3cnc(C(F)F)n3)C2)C1` [Example 352, [6-[3-(difluoromethyl)-1,2,4-triazol-1-yl]-2-azaspiro[3.3]heptan-2-yl]-[6-[[5-[1-(trifluoromethyl)cyclopropyl]-1H-pyrazol-3-yl]methyl]-2-azaspiro[3.3]heptan-2-yl]methanone], the figure is 0.6 nM; as for `O=C(N1CC2(CCN(Cc3ncc(C(F)F)s3)CC2)C1)N1CC2(CC(c3cc(C4CC4)n[nH]3)C2)C1` [Example 30, [6-(3-cyclopropyl-1H-pyrazol-5-yl)-2-azaspiro[3.3]heptan-2-yl]-[7-[[5-(difluoromethyl)thiazol-2-yl]methyl]-2,7-diazaspiro[3.5]nonan-2-yl]methanone], 3.59 nM; as for `O=C(N1CC2(CC(Cn3cc(S(=O)(=O)C(F)(F)F)cn3)C2)C1)N1CC2(CC(n3cnc(C(F)(F)F)n3)C2)C1` [Example 353, [6-[3-(trifluoromethyl)-1,2,4-triazol-1-yl]-2-azaspiro[3.3]heptan-2-yl]-[6-[(4-triflylpyrazol-1-yl)methyl]-2-azaspiro[3.3]heptan-2-yl]methanone], 0.19 nM.
With `O=C(N1CC2(CC(Cn3nccc3C(F)(F)F)C2)C1)N1CC2(CC(c3cc(C4(O)CC4)n[nH]3)C2)C1` [Example 5], the IC50 was determined as 1.7 nM.
As for `CC(C)(C)c1c[nH]c(CN2CC3(C2)CN(C(=O)N2CC4(CC(n5cnc(C6CC6)n5)C4)C2)C3)n1` [Example 253, [6-[(4-tert-butyl-1H-imidazol-2-yl)methyl]-2,6-diazaspiro[3.3]heptan-2-yl]-[6-(3-cyclopropyl-1,2,4-triazol-1-yl)-2-azaspiro[3.3]heptan-2-yl]methanone], the figure is 38.6 nM.
`O=C(N1CC2(CC(n3cnc(C4CC4)n3)C2)C1)N1CC2(CN(Cc3cc[nH]n3)C2)C1` [Example 257, [6-(3-cyclopropyl-1,2,4-triazol-1-yl)-2-azaspiro[3.3]heptan-2-yl]-[6-(1H-pyrazol-3-ylmethyl)-2,6-diazaspiro[3.3]heptan-2-yl]methanone]: the midpoint of inhibition, the IC50, lay at 1630 nM.
On to `O=C(N1CC2(CC(Cc3nc(C(F)(F)F)ns3)C2)C1)N1CC2(CC(n3cnc(C4CC4)n3)C2)C1` [Example 16], for which the IC50 turned out to be 0.18 nM.
Take `O=C(N1CC2(CC(Cc3cn(C4CC4)nc3C(F)(F)F)C2)C1)N1CC2(CC(n3cnc(C(F)(F)F)n3)C2)C1` [Example 61, [6-[[1-cyclopropyl-3-(trifluoromethyl)pyrazol-4-yl]methyl]-2-azaspiro[3.3]heptan-2-yl]-[6-[3-(trifluoromethyl)-1,2,4-triazol-1-yl]-2-azaspiro[3.3]heptan-2-yl]methanone]: the IC50 is 0.26 nM.
Turning to `O=C(N1CC2(CC(n3cnc(C4CC4)n3)C2)C1)N1CC2(CN(Cc3cc(C(F)(F)F)sn3)C2)C1` [Example 156, [6-(3-cyclopropyl-1,2,4-triazol-1-yl)-2-azaspiro[3.3]heptan-2-yl]-[6-[[5-(trifluoromethyl)isothiazol-3-yl]methyl]-2,6-diazaspiro[3.3]heptan-2-yl]methanone], the IC50 worked out at 3.8 nM.
Compound `Cn1ncc(P(C)(C)=O)c1CN1CC2(C1)CN(C(=O)N1CC3(CC(n4cnc(C(F)(F)F)n4)C3)C1)C2` [Example 227, [6-[(4-dimethylphosphoryl-2-methyl-pyrazol-3-yl)methyl]-2,6-diazaspiro[3.3]heptan-2-yl]-[6-[3-(trifluoromethyl)-1,2,4-triazol-1-yl]-2-azaspiro[3.3]heptan-2-yl]methanone] returned a half-inhibitory concentration (IC50) of 1380 nM.
For the compound `O=C(N1CC2(CC(n3cnc(C4CC4)n3)C2)C1)N1CC2(CN(Cc3cc(C(F)(F)F)ns3)C2)C1` [Example 154, [6-(3-cyclopropyl-1,2,4-triazol-1-yl)-2-azaspiro[3.3]heptan-2-yl]-[6-[[3-(trifluoromethyl)isothiazol-5-yl]methyl]-2,6-diazaspiro[3.3]heptan-2-yl]methanone], the IC50 stood at 2.64 nM.
In turn, `O=C(N1CC2(CC(n3cnc(C4CC4)n3)C2)C1)N1CC2(CN(Cc3nc(CC(F)(F)F)no3)C2)C1` [Example 207, [6-(3-cyclopropyl-1,2,4-triazol-1-yl)-2-azaspiro[3.3]heptan-2-yl]-[6-[[3-(2,2,2-trifluoroethyl)-1,2,4-oxadiazol-5-yl]methyl]-2,6-diazaspiro[3.3]heptan-2-yl]methanone] registered an IC50 of 25.6 nM.
The compound `O=C(N1CC2(CC(Cn3cnc(C(F)(F)F)n3)C2)C1)N1CC2(CC(n3cnc(C4(O)CC4)n3)C2)C1` [Example 128, [6-[3-(1-hydroxycyclopropyl)-1,2,4-triazol-1-yl]-2-azaspiro[3.3]heptan-2-yl]-[6-[[3-(trifluoromethyl)-1,2,4-triazol-1-yl]methyl]-2-azaspiro[3.3]heptan-2-yl]methanone] gave an IC50 of 9.98 nM.
On to `O=C(N1CC2(CC(Cc3cn(CC(F)(F)F)nc3C(F)(F)F)C2)C1)N1CC2(CC(n3cnc(C4(O)CC4)n3)C2)C1` [Example 120, [6-[3-(1-hydroxycyclopropyl)-1,2,4-triazol-1-yl]-2-azaspiro[3.3]heptan-2-yl]-[6-[[1-(2,2,2-trifluoroethyl)-3-(trifluoromethyl)pyrazol-4-yl]methyl]-2-azaspiro[3.3]heptan-2-yl]methanone], for which half-maximal inhibition (IC50) required 0.81 nM.
